Test results taken from patent publication US20040248816A1, “Treatment of migraine” (Boehringer Ingelheim International GmbH, priority 2003, published 2004).

Test system: vasodilatation of the facial skin, induced by electrical ganglion stimulation
Test: Facial skin blood flow: vasodilatation of the facial skin induced by electrical trigeminal ganglion stimulation
Assay type: in vivo, rat
Settings: anaesthetised male Wistar rats, i.v. 5 minutes before the second stimulation, BIBN 4096 Cl 0.03 mg/kg, sumatriptan 1.0 mg/kg, combination (0.03 mg + 1.0 mg)/kg; for % of trigeminus stimulation: first stimulation as control, saline control 82.7 ± 4.4
Protocol: Measurement of the Facial Skin Blood Flow
The facial skin blood flow was measured by a modified method as described by Escott et al. (Escott, K. J., Beattie, D. T., Connor, H. E., Brain, S. D. (1995), Trigeminal ganglion stimulation increases facial skin blood flow in the rat: a major role for calcitonin gene-related peptide, Brain Research, 669(1), 93-99). Fasting male Wistar rats (strain CHbb:THOM, 280-320 g) were anaesthetised with sodium pentobarbitone (initially with 60 mg/kg i.p. and maintained throughout the experiment with an intraperitoneal infusion of 30 mg/kg/h through a 23 G needle using a solution of 10 mg/ml). Both sides of the buccal region of the facial skin were shaved and depilated with a commercially available depilatory cream (Pilca, Schwarzkopf & Henkel, 40551 Düsseldorf, Germany). The trachea was fitted with a cannula, and the animals were artificially ventilated (80 breaths per minute) with ambient air enriched with oxygen. The body temperature was maintained at 37° C. using an automatic heating pad. The left femoral artery and left femoral vein were fitted with cannulas for continuous measurement of the arterial blood pressure or the intravenous administration of test compounds. A neuromuscular blockade was obtained by intravenous administration of pancuronium bromide (1 mg/kg/0.5 ml, 5 minutes before each electrical stimulation). The heart rate was derived from the blood pressure signal. The blood pressure and heart rate were recorded continuously during the course of the experiment in order to assess the level of anaesthesia and monitor the cardiovascular activities of the pharmaceutical compositions used in this study.
The animals were placed in a stereotactic frame, and a longitudinal cut was made in the scalp. A small hole was drilled in the skull (on the left or right) and a bipolar electrode (Rhodes SNEX-100, obtained from David Kopf Instruments, Tujunga, 91042 Calif., USA) was lowered by means of a micromanipulator into the trigeminal ganglion (0.32 cm dorsally of the bregma, ±0.30 cm laterally of the centre line and 0.95 cm below the dural surface). The position of the electrodes in the trigeminal ganglia was checked visually at the end of each experiment after the removal of the brain. […] Microvascular changes in blood flow in the facial skin were measured by laser Doppler flow measurement using a Periflux Laser-Doppler system (PeriFLUX 4001, wavelength: 780 nm; time constant: 3 s; Perimed AB, Järfälla, S-17526, Sweden). […] Changes in blood flow were measured as flow in any desired units and expressed as the area under the flow curve (mm^2) according to Escott et al. (1995). […]

[1] = Rattus norvegicus, iv, versus saline solution control, read-out: % inhibition compared with the control value

Row | SMILES | inhibition at 0.03 mg/kg [1] | % of trigeminus stimulation | inhibition at 1 mg/kg [1]
1 | NCCCC[C@H](NC(=O)[C@@H](Cc1cc(Br)c(O)c(Br)c1)NC(=O)N1CCC(N2Cc3ccccc3NC2=O)CC1)C(=O)N1CCN(c2ccncc2)CC1 [BIBN 4096 Cl, 1-[N^2-[3,5-dibromo-N-[[4-(3,4-dihydro-2(1H)-oxoquinazolin-3-yl)-1-piperidinyl]-carbonyl]-D-tyrosyl]-L-lysyl]-4-(4-pyridinyl)-piperazine] | 27.1% | 60.3 ± 5.1% | –
2 | CNS(=O)(=O)Cc1ccc2[nH]cc(CCN(C)C)c2c1 [sumatriptan] | – | 68.8 ± 6.8% | 16.8%
